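Method: 48-hour compound exposure of cells in 96-well plates, five concentrations, linear interpolation of endpoints. At the GI50, growth is halved. Definition used: TGI = concentration required for complete inhibition of growth.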
Legend:
Assay in all cases: NCI anticancer screen, dose series, 48 h
786-0 renal = system: 786-0 renal
A498 renal = system: A498 renal
A549 NSCLC = system: A549 NSCLC
ACHN renal = system: ACHN renal
BT-549 breast = system: BT-549 breast
CAKI-1 renal = system: CAKI-1 renal
CCRF-CEM leukemia = system: CCRF-CEM leukemia
COLO 205 colon = system: COLO 205 colon
DU-145 prostate = system: DU-145 prostate
EKVX NSCLC = system: EKVX NSCLC
HCC-2998 colon = system: HCC-2998 colon
HCT-116 colon = system: HCT-116 colon
HCT-15 colon = system: HCT-15 colon
HL-60(TB) leukemia = system: HL-60(TB) leukemia
HOP-62 NSCLC = system: HOP-62 NSCLC
HOP-92 NSCLC = system: HOP-92 NSCLC
HS 578T breast = system: HS 578T breast
HT29 colon = system: HT29 colon
IGROV1 ovarian = system: IGROV1 ovarian
K-562 leukemia = system: K-562 leukemia
KM12 colon = system: KM12 colon
LOX IMVI melanoma = system: LOX IMVI melanoma
M14 melanoma = system: M14 melanoma
MALME-3M melanoma = system: MALME-3M melanoma
MCF7 breast = system: MCF7 breast
MDA-MB-231 breast = system: MDA-MB-231 breast
MDA-MB-435 = system: MDA-MB-435
MOLT-4 leukemia = system: MOLT-4 leukemia
NCI-H226 lung = system: NCI-H226 lung
NCI-H23 lung = system: NCI-H23 lung
NCI-H460 lung = system: NCI-H460 lung
NCI-H522 lung = system: NCI-H522 lung
NCI/ADR-RES ovarian = system: NCI/ADR-RES ovarian
OVCAR-3 ovarian = system: OVCAR-3 ovarian
OVCAR-4 ovarian = system: OVCAR-4 ovarian
OVCAR-5 ovarian = system: OVCAR-5 ovarian
OVCAR-8 ovarian = system: OVCAR-8 ovarian
PC-3 prostate = system: PC-3 prostate
RPMI-8226 leukemia = system: RPMI-8226 leukemia
RXF 393 renal = system: RXF 393 renal
SF-268 CNS = system: SF-268 CNS
SF-295 CNS = system: SF-295 CNS
SF-539 CNS = system: SF-539 CNS
SK-MEL-2 melanoma = system: SK-MEL-2 melanoma
SK-MEL-28 melanoma = system: SK-MEL-28 melanoma
SK-MEL-5 melanoma = system: SK-MEL-5 melanoma
SK-OV-3 ovarian = system: SK-OV-3 ovarian
SN12C renal = system: SN12C renal
SNB-19 CNS = system: SNB-19 CNS
SNB-75 CNS = system: SNB-75 CNS
SR leukemia = system: SR leukemia
SW-620 colon = system: SW-620 colon
T-47D breast = system: T-47D breast
TK-10 renal = system: TK-10 renal
U251 CNS = system: U251 CNS
UACC-257 melanoma = system: UACC-257 melanoma
UACC-62 melanoma = system: UACC-62 melanoma
UO-31 renal = system: UO-31 renal

With C[C@]12CC[C@@H]3c4cc(OC(F)F)c(OS(N)(=O)=O)cc4CC[C@H]3[C@@H]1CC[C@@H]2OS(N)(=O)=O the GI50 (786-0 renal) was 1.8 µM, the TGI (786-0 renal) was 16.5 µM and the GI50 (A498 renal) was 0.934 µM. For the same compound, the TGI (A498 renal) was 4.02 µM, the GI50 (A549 NSCLC) was 2.52 µM and the TGI (A549 NSCLC) was 34.4 µM. The GI50 (ACHN renal) was 1.8 µM, the TGI (ACHN renal) was 25.6 µM and the GI50 (BT-549 breast) was 3.19 µM. The TGI (BT-549 breast) was 20.4 µM, the GI50 (CAKI-1 renal) was 1.46 µM and the TGI (CAKI-1 renal) was 19.8 µM. The TGI (CCRF-CEM leukemia) was greater than 70.7 µM, the GI50 (COLO 205 colon) was 2.97 µM and the TGI (COLO 205 colon) was 21.4 µM. For the same compound, the GI50 (DU-145 prostate) was 1.47 µM, the TGI (DU-145 prostate) was 22.4 µM and the GI50 (EKVX NSCLC) was 1.7 µM. The TGI (EKVX NSCLC) was 22.5 µM, the GI50 (HCC-2998 colon) was 3.88 µM and the TGI (HCC-2998 colon) was 17.3 µM. It also gave a GI50 (HCT-116 colon) of 0.997 µM, a TGI (HCT-116 colon) of 13.9 µM and a GI50 (HCT-15 colon) of 0.593 µM. It also gave a TGI (HCT-15 colon) of 15.8 µM, a GI50 (HL-60(TB) leukemia) of 0.829 µM and a TGI (HL-60(TB) leukemia) of 27.6 µM. The GI50 (HOP-62 NSCLC) was 3.4 µM, the TGI (HOP-62 NSCLC) was 38.8 µM and the GI50 (HOP-92 NSCLC) was 1.15 µM. It also gave a TGI (HOP-92 NSCLC) of 10.6 µM, a GI50 (HS 578T breast) of 1 µM and a TGI (HS 578T breast) of 16.1 µM. The GI50 (HT29 colon) was 2.25 µM, the TGI (HT29 colon) was 22.5 µM and the GI50 (IGROV1 ovarian) was 1.88 µM. For the same compound, the TGI (IGROV1 ovarian) was 28.7 µM, the GI50 (K-562 leukemia) was 0.389 µM and the TGI (K-562 leukemia) was greater than 100 µM. It also gave a GI50 (KM12 colon) of 1.62 µM, a TGI (KM12 colon) of 20 µM and a GI50 (LOX IMVI melanoma) of 1.25 µM. The TGI (LOX IMVI melanoma) was 19.1 µM, the GI50 (M14 melanoma) was 0.631 µM and the TGI (M14 melanoma) was 17.7 µM. It also gave a GI50 (MALME-3M melanoma) of 2.35 µM, a TGI (MALME-3M melanoma) of 22 µM and a GI50 (MCF7 breast) of 1.09 µM. The TGI (MCF7 breast) was 19.2 µM, the GI50 (MDA-MB-231 breast) was 3.05 µM and the TGI (MDA-MB-231 breast) was 28.2 µM. It also gave a GI50 (MDA-MB-435) of 0.241 µM, a TGI (MDA-MB-435) of 3.04 µM and a GI50 (MOLT-4 leukemia) of 1.06 µM. For the same compound, the TGI (MOLT-4 leukemia) was 47.7 µM, the GI50 (NCI-H226 lung) was 4.24 µM and the TGI (NCI-H226 lung) was 33.2 µM. For the same compound, the GI50 (NCI-H23 lung) was 2.44 µM, the TGI (NCI-H23 lung) was 21.6 µM and the GI50 (NCI-H460 lung) was 1.45 µM. The TGI (NCI-H460 lung) was 15.4 µM, the GI50 (NCI-H522 lung) was 0.689 µM and the TGI (NCI-H522 lung) was 12.7 µM. The GI50 (NCI/ADR-RES ovarian) was 0.696 µM, the TGI (NCI/ADR-RES ovarian) was 28.9 µM and the GI50 (OVCAR-3 ovarian) was 2.17 µM. For the same compound, the TGI (OVCAR-3 ovarian) was 28.4 µM, the GI50 (OVCAR-4 ovarian) was 5.33 µM and the TGI (OVCAR-4 ovarian) was 29.5 µM. It also gave a GI50 (OVCAR-5 ovarian) of 4.73 µM, a TGI (OVCAR-5 ovarian) of 26.5 µM and a GI50 (OVCAR-8 ovarian) of 1.74 µM. The TGI (OVCAR-8 ovarian) was greater than 59 µM, the GI50 (PC-3 prostate) was 1.41 µM and the TGI (PC-3 prostate) was 30.6 µM. It also gave a GI50 (RPMI-8226 leukemia) of 1.03 µM, a TGI (RPMI-8226 leukemia) of 35.4 µM and a GI50 (RXF 393 renal) of 4.16 µM. For the same compound, the TGI (RXF 393 renal) was 16.1 µM, the GI50 (SF-268 CNS) was 6.44 µM and the TGI (SF-268 CNS) was 49.8 µM. It also gave a GI50 (SF-295 CNS) of 1.04 µM, a TGI (SF-295 CNS) of 3.14 µM and a GI50 (SF-539 CNS) of 0.781 µM. It also gave a TGI (SF-539 CNS) of 3.84 µM, a GI50 (SK-MEL-2 melanoma) of 2.79 µM and a TGI (SK-MEL-2 melanoma) of 24.9 µM. The GI50 (SK-MEL-28 melanoma) was 2.94 µM, the TGI (SK-MEL-28 melanoma) was 20.3 µM and the GI50 (SK-MEL-5 melanoma) was 1.21 µM. The TGI (SK-MEL-5 melanoma) was 13.4 µM, the GI50 (SK-OV-3 ovarian) was 6.14 µM and the TGI (SK-OV-3 ovarian) was 33.2 µM. It also gave a GI50 (SN12C renal) of 2.07 µM, a TGI (SN12C renal) of 21.4 µM and a GI50 (SNB-19 CNS) of 1.48 µM. It also gave a TGI (SNB-19 CNS) of 21.8 µM, a GI50 (SNB-75 CNS) of 0.463 µM and a TGI (SNB-75 CNS) of 2.15 µM. It also gave a GI50 (SR leukemia) of 0.441 µM, a TGI (SR leukemia) greater than 100 µM and a GI50 (SW-620 colon) of 0.439 µM. The TGI (SW-620 colon) was 20.7 µM, the GI50 (T-47D breast) was 1.56 µM and the TGI (T-47D breast) was 31.7 µM. The GI50 (TK-10 renal) was 13.6 µM, the TGI (TK-10 renal) was 49.1 µM and the GI50 (U251 CNS) was 1.83 µM. The TGI (U251 CNS) was 20.2 µM, the GI50 (UACC-257 melanoma) was 5.87 µM and the TGI (UACC-257 melanoma) was 24.8 µM. For the same compound, the GI50 (UACC-62 melanoma) was 1.38 µM, the TGI (UACC-62 melanoma) was 16.8 µM and the GI50 (UO-31 renal) was 1.42 µM. For the same compound, the TGI (UO-31 renal) was 19.4 µM.
